Measurements: patent US20130225684A1, “METHODS AND COMPOSITIONS FOR ENHANCEMENT OF VISION PERFORMANCE” (KYOWA HAKKO BIO CO., LTD., priority 2012, published 2013)
“Also recorded” adds a separate entry of the source. Where a SMILES comes first, the peptide text is derived from it.

What was measured:
[1] = alanylglutamine compared to glutamine; cited from earlier work
[2] = hand-eye reaction time on the Dynavison D2 after a 40 minute basketball game; format: in vivo, women (basketball players); details: for Visual reaction time: FIG. 2
Method: The purpose of this study was to examine the efficacy of L-alanyl-Lglutamine (AG) ingestion on sports vision, including reaction time. Ten women (21.2±1.6 years; height: 177.8±8.7 cm; body mass:73.5±8.0 kg), all basketball players, volunteered for this study. The study required subjects to first participate in a 40 minute basketball game. During one trial, subjects consumed only water (W), while during the other two trials subjects consumed the AG supplement marketed as Sustamine mixed in water using either a low dose (1 g per 500 ml) (AG1) or high dose (2 g per 500 ml) (AG2) concentration. Other subjects where not allowed to consume water or AG. (DHY) Measurement of hand-eye reaction time was performed on the Dynavison D2 (Dynavision, Ontario Canada). Subjects were required to assume a comfortable athletic stance and stand at a distance from the board where they could easily reach all of the lights. The board height was adjusted so the LCD screen was located just below eye level. Participants were told to fixate their gaze on the LCD screen in the middle of the board and to keep their focus there for the entirety of the experiment. During the assessment each subject pressed a light with their dominant side index finger on the board. When a second light flashed (on the same line of the initial light, but on the non-dominant side of their body), the subject removed their finger and pressed the new visual stimulus. The time necessary to recognize the new stimulus (new light lit until finger lifted from initial light) was recorded as visual reaction time, and the time it took for the subject to move and press the newly lit light was recorded as the motor reaction time. The total time for both visual reaction and motor reaction was calculated as the physical reaction time. A total of eight attempts were performed. The average time for all eight attempts was recorded.

[3] = into alanine and glutamine; cited from earlier work
[4] = alanylglutamine compared to glutamine; cited from earlier work; remark: listed apart in the source

SMILES	solubility in aqueous solutions [1]	Visual reaction time ([2]; AG1: low dose (1 g per 500 ml) in water, compared to DHY (no water and no AG), p=0.014)	change in the physical reaction time (combined visual and motor differences) ([2]; AG1: low dose (1 g per 500 ml) in water, compared to DHY, p=0.032)	Visual reaction time ([2]; AG2: high dose (2 g per 500 ml) in water, compared to DHY, p=0.018)	motor response (motor reaction time) ([2]; between trials (AG1, AG2, W, DHY), FIG. 3)	degradation in the body [3]	heat stability [4]
C[C@H](N)C(=O)N[C@@H](CCC(N)=O)C(=O)O [AG, L-alanyl-Lglutamine] (H-Ala-Gln-OH)	superior	significantly better; also recorded: enhanced visual reaction time	significantly greater	trend toward a similar response	no significant differences	immediately degraded	superior
NC(=O)CC[C@H](N)C(=O)O [glutamine, reference compound]	low-solubility	–	–	–	–	–	–
